29 compounds from patent publication US20250346602A1, “LACTAM SUBSTITUTED IMIDAZOPYRIDAZINE IL-17A MODULATORS AND USES THEREOF” (DICE ALPHA, INC., priority 2022, published 2025) can be followed below.

pIC50: −log10 of the molar value.

Broadly, the pIC50 is the IC50 on a negative log10 scale, so that one unit is a factor of ten.

The target in this assay is T1, IL-17A/A (Homo sapiens, UniProt Q16552).
T1 construct: purchased Genscript Z03228
T1 sequence (Q16552 24-155): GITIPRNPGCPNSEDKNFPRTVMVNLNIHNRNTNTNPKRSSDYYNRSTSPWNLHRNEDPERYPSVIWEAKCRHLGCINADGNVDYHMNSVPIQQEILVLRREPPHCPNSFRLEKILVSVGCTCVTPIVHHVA
In words: IL-17A/A HEK-Blue cell assay. The following applies: HEK-Blue IL-17A reporter cell line (HEK 293), IL-17A/A stimulation, 20 hours incubation, SEAP read at A630. The assay is classed as cell-based. The procedure, abridged: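 IC50 came from a 4-parameter fit of SEAP read at A630 (Quanti-Blue). Compound was titrated to a top final concentration of 10, 1 or 0.3 uM with 0.1% final DMSO and added just before IL-17A/A. Incubation lasted 20 hours in HEK293 cells engineered with IL-17RA, IL-17RC, Act1 and an NFκB-SEAP reporter.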
With `CCn1nccc1C(=O)N[C@H](c1cn2nc(CC3C[C@@H](C(F)(F)F)CNC3=O)c(C(=O)O)cc2n1)C1CCC(F)(F)CC1` (stereo partly drawn) [Compound 187, 2-((S)-(4,4-difluorocyclohexyl)(1-ethyl-1H-pyrazole-5-carboxamido)methyl)-6-(((5R)-2-oxo-5-(trifluoromethyl)piperidin-3-yl)methyl)imidazo[1,2-b]pyridazine-7-carboxylic acid], the pIC50 was 6.00 to 7.00.

As for `CCn1nccc1C(=O)NC(c1cn2ncc(CC3CCC(C(F)(F)F)NC3=O)cc2n1)C1CCC(C)CC1` (single isomer, unassigned) [Compound 214], the negative logarithm of the IC50 (pIC50) is 6.00 to 7.00.

Regarding `CCn1nccc1C(=O)N[C@H](c1cn2nc(CC3C[C@@H](C(F)(F)F)NC3=O)ccc2n1)C1CCC(F)(F)CC1` (stereo partly drawn) [Compound 7, N-((1S)-(4,4-difluorocyclohexyl)(6-(((5S)-2-oxo-5-(trifluoromethyl)pyrrolidin-3-yl)methyl)imidazo[1,2-b]pyridazin-2-yl)methyl)-1-ethyl-1H-pyrazole-5-carboxamide], the pIC50 is 6.00 to 7.00.

With `CCc1nonc1C(=O)N[C@H](c1cn2nc(C[C@H]3CCCNC3=O)ccc2n1)C(C1CC1)C1CC1` [Compound 35, N—((S)-2,2-dicyclopropyl-1-(6-(((R)-2-oxopiperidin-3-yl)methyl)imidazo[1,2-b]pyridazin-2-yl)ethyl)-4-ethyl-1,2,5-oxadiazole-3-carboxamide], the pIC50 was 6.00 to 7.00.

As for `CCn1nccc1C(=O)N[C@H](c1cn2nc(CC3C[C@@H](C(F)(F)F)CNC3=O)ccc2n1)C(C1CC1)C1CC1` (stereo partly drawn) [Compound 96, N-((1S)-2,2-dicyclopropyl-1-(6-(((5R)-2-oxo-5-(trifluoromethyl)piperidin-3-yl)methyl)imidazo[1,2-b]pyridazin-2-yl)ethyl)-1-ethyl-1H-pyrazole-5-carboxamide], the pIC50 was 6.00 to 7.00.

`Cn1c(C#N)ccc1C(=O)N[C@H](c1cn2nc(CC3C[C@@H](C(F)(F)F)CNC3=O)ccc2n1)C1CCC(F)(F)CC1` (stereo partly drawn) [Compound 133, 5-cyano-N-((1S)-(4,4-difluorocyclohexyl)(6-(((5R)-2-oxo-5-(trifluoromethyl)piperidin-3-yl)methyl)imidazo[1,2-b]pyridazin-2-yl)methyl)-1-methyl-1H-pyrrole-2-carboxamide]: the pIC50 is 6.00 to 7.00.

With `CCn1nccc1C(=O)N[C@H](c1cn2nc(CC3C[C@@H](C(F)(F)F)NC3=O)ccc2n1)C1CCCCCC1` (single isomer, unassigned) [Compound 6], the pIC50 is under 6.00.

As for `O=C(N[C@H](c1cn2nc(CC3C[C@@H](C(F)(F)F)CNC3=O)ccc2n1)C1CCC(F)(F)CC1)c1ccnn1C1CC1(F)F` (single isomer, unassigned) [Compound 98], the pIC50 was over 7.00.

In the case of `O=C(N[C@H](c1cn2nc(CC3C[C@@H](C(F)(F)F)CNC3=O)ccc2n1)C1CCC(F)(F)CC1)c1conc1C(F)(F)F` (stereo partly drawn) [Compound 114, N-((1S)-(4,4-difluorocyclohexyl)(6-(((5R)-2-oxo-5-(trifluoromethyl)piperidin-3-yl)methyl)imidazo[1,2-b]pyridazin-2-yl)methyl)-3-(trifluoromethyl)isoxazole-4-carboxamide], the pIC50 is 6.00 to 7.00.

In the case of `O=C(N[C@H](c1cn2nc(C[C@H]3C[C@@H](C(F)(F)F)NC3=O)ccc2n1)C1CCC(F)(F)CC1)c1nonc1C1CC1` (single isomer, unassigned) [Compound 19], the negative-log IC50 (pIC50) is 6.00 to 7.00.

Turning to `CCc1nonc1C(=O)N[C@H](c1cn2nc(C[C@H]3CCCNC3=O)ccc2n1)C1CCC(F)(F)CC1` [Compound 37, N—((S)-(4,4-difluorocyclohexyl)(6-(((R)-2-oxopiperidin-3-yl)methyl)imidazo[1,2-b]pyridazin-2-yl)methyl)-4-ethyl-1,2,5-oxadiazole-3-carboxamide], the negative logarithm of the IC50 (pIC50) was under 6.00.

Consider `CC[C@@H](c1ccc(F)cc1)[C@H](NC(=O)c1ccnn1CC)c1cn2nc(CC3C[C@@H](C(F)(F)F)CNC3=O)ccc2n1` (stereo partly drawn) [Compound 168, 1-ethyl-N-((1S,2S)-2-(4-fluorophenyl)-1-(6-(((3R.5R)-2-oxo-5-(trifluoromethyl)piperidin-3-yl)methyl)imidazo[1,2-b]pyridazin-2-yl)butyl)-1H-pyrazole-5-carboxamide], for which the pIC50 was over 7.00.

Turning to `CCn1nccc1C(=O)N[C@H](c1cn2nc(CC3C[C@@H](C(F)(F)F)CNC3=O)c(S(C)(=O)=O)cc2n1)C1CCC(F)(F)CC1` (stereo partly drawn) [Compound 184, N-((1S)-(4,4-difluorocyclohexyl)(7-(methylsulfonyl)-6-(((5R)-2-oxo-5-(trifluoromethyl)piperidin-3-yl)methyl)imidazo[1,2-b]pyridazin-2-yl)methyl)-1-ethyl-1H-pyrazole-5-carboxamide], the pIC50 was 6.00 to 7.00.

For the compound `C[C@H]1CC[C@H]([C@H](NC(=O)c2conc2C2CC2)c2cn3nc(CC4C[C@@H](C(F)(F)F)CNC4=O)ccc3n2)CC1` (stereo partly drawn) [Compound 161, 3-cyclopropyl-N-((1S)-((1R.4S)-4-methylcyclohexyl)(6-(((5R)-2-oxo-5-(trifluoromethyl)piperidin-3-yl)methyl)imidazo[1,2-b]pyridazin-2-yl)methyl)isoxazole-4-carboxamide], the negative-log IC50 (pIC50) is over 7.00.

In the case of `CCn1nccc1C(=O)N[C@H](c1cn2nc(CC3C[C@@H](C(F)(F)F)CNC3=O)c(OC(C)C)cc2n1)C1CCC(F)(F)CC1` (stereo partly drawn) [Compound 185, N-((1S)-(4,4-difluorocyclohexyl)(7-isopropoxy-6-(((5R)-2-oxo-5-(trifluoromethyl)piperidin-3-yl)methyl)imidazo[1,2-b]pyridazin-2-yl)methyl)-1-ethyl-1H-pyrazole-5-carboxamide], the pIC50 is over 7.00.

As for `CCn1nccc1C(=O)NC(c1cn2nc(CC3CC(F)(F)CNC3=O)ccc2n1)C1CCC(C)CC1` (single isomer, unassigned) [Compound 26], the pIC50 was 6.00 to 7.00.

`CCn1nccc1C(=O)NC(c1cn2ncc(CC3CC(F)(F)CNC3=O)cc2n1)C1CCC(C)CC1` (single isomer, unassigned) [Compound 211]: the negative-log IC50 (pIC50) was 6.00 to 7.00.

With `CCn1nccc1C(=O)N[C@H](c1cn2nc(CC3C[C@@H](C(F)(F)F)CNC3=O)c(COC)cc2n1)C1CCC(F)(F)CC1` (stereo partly drawn) [Compound 84, N-((1S)-(4,4-difluorocyclohexyl)(7-(methoxymethyl)-6-(((5R)-2-oxo-5-(trifluoromethyl)piperidin-3-yl)methyl)imidazo[1,2-b]pyridazin-2-yl)methyl)-1-ethyl-1H-pyrazole-5-carboxamide], the pIC50 was 6.00 to 7.00.

`CCn1nccc1C(=O)N[C@H](c1cn2nc(CC3CC(F)(F)CNC3=O)ccc2n1)C1CCC(F)(F)CC1` (single isomer, unassigned) [Compound 25]: the negative logarithm of the IC50 (pIC50) was 6.00 to 7.00.

`CCn1nccc1C(=O)N[C@H](c1cn2nc(CC3CC(C4CC4)CNC3=O)ccc2n1)C1CCC(F)(F)CC1` (single isomer, unassigned) [Compound 71]: the pIC50 is 6.00 to 7.00.

For `CC[C@@H](c1ccc(F)cc1)C(NC(=O)c1ccnn1CC)c1cn2nc(CC3CC(F)(F)CNC3=O)ccc2n1` (single isomer, unassigned) [Compound 30], the negative logarithm of the IC50 (pIC50) is 6.00 to 7.00.

Take `O=C(N[C@H](c1cn2ncc(CC3C[C@@H](C(F)(F)F)NC3=O)cc2n1)C1CCC(F)(F)CC1)c1conc1C1CC1` (single isomer, unassigned) [Compound 219]: the negative logarithm of the IC50 (pIC50) was over 7.00.

For the compound `CCn1nccc1C(=O)NC(c1cn2nc(CC3C[C@@H](C(F)(F)F)CNC3=O)ccc2n1)C1CCC2CC2CC1` (single isomer, unassigned) [Compound 175], the negative-log IC50 (pIC50) is 6.00 to 7.00.

Turning to `C[C@H]1CC[C@H]([C@H](NC(=O)c2ccnn2CCO)c2cn3nc(CC4C[C@@H](C(F)(F)F)CNC4=O)ccc3n2)CC1` (stereo partly drawn) [Compound 167, 1-(2-hydroxyethyl)-N—((S)-((1R.4S)-4-methylcyclohexyl)(6-(((3R.5R)-2-oxo-5-(trifluoromethyl)piperidin-3-yl)methyl)imidazo[1,2-b]pyridazin-2-yl)methyl)-1H-pyrazole-5-carboxamide], the negative logarithm of the IC50 (pIC50) is 6.00 to 7.00.

For `CCn1nccc1C(=O)N[C@H](c1cn2nc(CC3C[C@@H](C(F)(F)F)CNC3=O)ccc2n1)[C@H]1C[C@@H](C2CC2)C1` (stereo partly drawn) [Compound 179, N-((1S)-((1S,3R)-3-cyclopropylcyclobutyl)(6-(((5R)-2-oxo-5-(trifluoromethyl)piperidin-3-yl)methyl)imidazo[1,2-b]pyridazin-2-yl)methyl)-1-ethyl-1H-pyrazole-5-carboxamide], the negative logarithm of the IC50 (pIC50) is under 6.00.

For the compound `CCn1nccc1C(=O)NC(c1cn2nc(CC3CC(C)CNC3=O)ccc2n1)C1CCC(C)CC1` (single isomer, unassigned) [Compound 50], the negative-log IC50 (pIC50) is under 6.00.

Take `CCn1nccc1C(=O)N[C@H](c1cn2nc(CC3C[C@@H](C(F)(F)F)CNC3=O)c(N(C)CC(F)(F)F)cc2n1)C1CCC(F)(F)CC1` (single isomer, unassigned) [Compound 182]: the pIC50 is 6.00 to 7.00.

As to `CCn1nccc1C(=O)N[C@H](c1cn2nc(CC3C[C@@H](C(F)(F)F)CNC3=O)c(N(C)C)cc2n1)C1CCC(F)(F)CC1` (single isomer, unassigned) [Compound 85], the negative-log IC50 (pIC50) is 6.00 to 7.00.

In the case of `O=C(N[C@H](c1cn2nc(CC3C[C@@H](C(F)(F)F)CNC3=O)ccc2n1)C1CCC(F)(F)CC1)c1ccnn1CCF` (stereo partly drawn) [Compound 101, N-((1S)-(4,4-difluorocyclohexyl)(6-(((5R)-2-oxo-5-(trifluoromethyl)piperidin-3-yl)methyl)imidazo[1,2-b]pyridazin-2-yl)methyl)-1-(2-fluoroethyl)-1H-pyrazole-5-carboxamide], the pIC50 was 6.00 to 7.00.
